Assay results from patent US12441762B2, “Hepatitis c virus NS3/4A protease inhibitors” (priority 2019, dated 2025).
Read-outs that look alike come from different tables or passages of the source.

Assays:
[1] = system: HCV NS3/4A protease D168A variant; test: biochemical; type: biochemical, Hepatitis C virus; settings: Table S1, value in parentheses
In short: (§1)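 Inhibitors pre-incubated 1 h at room temperature with 2 nM NS3/4A protease (GT1a C159S or D168A) in 50 mM Tris, 5% glycerol, 10 mM DTT, 0.6 mM LDAO, 4% DMSO, pH 7.5. Km from global Michaelis-Menten fit of inner-filter-corrected initial velocities; three independent data sets per inhibitor and construct.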

[2] = target: T1, HCV NS3/4A protease D168A variant (Hepatitis C virus genotype 1a, UniProt P27958, C1185S/D1194A); test: biochemical; type: biochemical
T1 construct: His-tag (cleaved yes); made in house; host or cells: Escherichia coli BL21(DE3), PET28a vector
T1 sequence (P27958 1027-1208 C1185S/D1194A): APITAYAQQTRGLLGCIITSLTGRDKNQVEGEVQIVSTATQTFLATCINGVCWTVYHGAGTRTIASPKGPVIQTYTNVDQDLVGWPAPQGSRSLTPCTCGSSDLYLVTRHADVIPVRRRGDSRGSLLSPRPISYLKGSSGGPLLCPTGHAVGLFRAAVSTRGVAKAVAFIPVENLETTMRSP
In short: as §1

[3] = target: T2, wild-type HCV NS3/4A protease (GT1a) (Hepatitis C virus genotype 1a, UniProt P27958, C1185S); test: biochemical; type: biochemical
T2 construct: His-tag (cleaved yes); made in house; host or cells: Escherichia coli BL21(DE3), PET28a vector
T2 sequence (P27958 1027-1208 C1185S): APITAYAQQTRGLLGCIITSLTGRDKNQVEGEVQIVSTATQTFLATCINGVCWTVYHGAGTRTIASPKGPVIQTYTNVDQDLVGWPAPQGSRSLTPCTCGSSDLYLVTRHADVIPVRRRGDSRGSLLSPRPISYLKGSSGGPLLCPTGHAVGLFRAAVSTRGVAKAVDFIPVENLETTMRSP
In short: as §1

HCV NS3/4A protease GT3 = HCV NS3/4A protease GT3 (Hepatitis C virus genotype 3a, UniProt Q81495); test: biochemical
Chain of HCV NS3/4A protease GT3 (Q81495 1033-1214): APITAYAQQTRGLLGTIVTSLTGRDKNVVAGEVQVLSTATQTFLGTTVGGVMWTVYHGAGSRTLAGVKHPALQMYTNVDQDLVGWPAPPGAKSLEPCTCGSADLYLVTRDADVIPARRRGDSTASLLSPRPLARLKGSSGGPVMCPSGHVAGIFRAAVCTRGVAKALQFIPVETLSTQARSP
Chain of HCV NS3/4A protease GT3 (Q81495 1664-1717): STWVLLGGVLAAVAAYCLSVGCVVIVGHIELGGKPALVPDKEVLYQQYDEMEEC

[4] = rcm bond, 70.0 °C, 6.0 h
[5] = rcm bond, 15-membered ring, Zhan 1B, 1,2-DCE, 70.0 °C

| Compound | Fold Change of D168A Ki with respect to GT1a wild-type [1] | Ki [2] | Ki [3] | Ki (HCV NS3/4A protease GT3) | further results |
| --- | --- | --- | --- | --- | --- |
| COc1ccc2nc(C)c(O[C@@H]3C[C@H]4C(=O)N[C@]5(C(=O)NS(=O)(=O)C6(C)CC6)C[C@H]5/C=C\CCCCC[C@H](NC(=O)OC5(C)CCCC5)C(=O)N4C3)nc2c1 [AJ-74, 1-Methylcyclopentyl ((2R,6S,13aS,14aR,16aS, Z)-2-((7-methoxy-3-methylquinoxalin-2-yl)oxy)-14a-(((1-methylcyclopropyl)sulfonyl)carbamoyl)-5,16-dioxo-1,2,3,5,6,7,8,9,10,11,13a,14,14a,15,16,16a-hexadecahydrocyclopropa[e]pyrrolo[1,2-a][1,4]diazacyclopentadecin-6-yl) carbamate] | (9) fold | 16 ± 1.2 nM | 1.78 ± 0.3 nM | 151 ± 11 nM | – |
| COc1ccc2nc(C(F)(F)F)c(O[C@@H]3C[C@H]4C(=O)N[C@]5(C(=O)NS(=O)(=O)C6(C)CC6)C[C@H]5/C=C\CCCCC[C@H](NC(=O)OC(C)(C)C)C(=O)N4C3)nc2c1 [CH-24, tert-Butyl ((2R,6S,13aS,14aR,16aS, Z)-2-((7-methoxy-3-(trifluoromethyl)quinoxalin-2-yl)oxy)-14a-(((1-methylcyclopropyl)sulfonyl)carbamoyl)-5,16-dioxo-1,2,3,5,6,7,8,9,10,11,13a,14,14a,15,16,16a-hexadecahydrocyclopropa[e]pyrrolo[1,2-a] [1,4]diazacyclopentadecin-6-yl) carbamate] | – | 118 ± 13 nM | 5.77 ± 1.78 nM | – | ring closure, yield of all isomers ([4]; from C=CCCCCC[C@H](NC(=O)OC(C)(C)C)C(=O)N1C[C@H](Oc2nc3cc(OC)ccc3nc2C(F)(F)F)C[C@H]1C(=O)N[C@]1(C(=O)NS(=O)(=O)C2(C)CC2)C[C@H]1C=C, Zhan 1B, 1,2-dichloroethane, 5.73 mM): 73% |
| COc1ccc2nc(C)c(O[C@@H]3C[C@H]4C(=O)N[C@]5(C(=O)NS(=O)(=O)C6(C)CC6)C[C@H]5/C=C\CCCCC[C@H](NC(=O)OC(C)(C)C)C(=O)N4C3)nc2c1 [JZ01-15, tert-Butyl ((2R,6S,13aS,14aR,16aS, Z)-2-((7-methoxy-3-methylquinoxalin-2-yl)oxy)-14a-(((1-methylcyclopropyl)sulfonyl)carbamoyl)-5,16-dioxo-1,2,3,5,6,7,8,9,10,11,13a,14,14a,15,16,16a-hexadecahydrocyclopropa[e]pyrrolo[1,2-a] [1,4]diazacyclopentadecin-6-yl) carbamate] | (14) fold | 52 ± 2.4 nM | 3.6 ± 0.44 nM | – | ring closure, yield of all isomers ([4]; from C=CCCCCC[C@H](NC(=O)OC(C)(C)C)C(=O)N1C[C@H](Oc2nc3cc(OC)ccc3nc2C)C[C@H]1C(=O)N[C@]1(C(=O)NS(=O)(=O)C2(C)CC2)C[C@H]1C=C, Zhan 1B, 1,2-dichloroethane, 4.95 mM): 70%; ring closure, yield of all isomers ([4]; from C=CCCCCC[C@H](NC(=O)OC(C)(C)C)C(=O)N1C[C@H](Oc2nc3cc(OC)ccc3nc2C)C[C@H]1C(=O)N[C@]1(C(=O)NS(=O)(=O)C2(C)CC2)C[C@H]1C=C, Zhan 1b catalyst, 1,2-DCE, 4.95 mM): 70% |
| COc1ccc2nc(C)c(O[C@@H]3C[C@H]4C(=O)N[C@]5(C(=O)NS(=O)(=O)C6(C)CC6)C[C@H]5/C=C\CCCCC[C@H](NC(=O)OC5(C)CCCC5)C(=O)N4C3)nc2c1 [JZ01-19] | – | – | – | – | Fold Change of D168A Ki with respect to GT1a wild-type ([1]; listed as P4-3): (32) fold; Ki ([2]; Table 2, read-out: Ki D168A): 36 ± 1.8 nM; Ki ([2]; Table S1, Morrison equation fit, read-out: Ki D168A): 36 ± 1.8 nM; fold increase in potency against D168A compared to the parent compound [2]: ~3 fold; Ki ([3]; Table 2, read-out: Ki WT (GT1a)): 1.13 ± 0.22 nM; Ki ([3]; Table S1, Morrison equation fit, read-out: Ki GT1a WT): 1.13 ± 0.22 nM; Ki (HCV NS3/4A protease GT3; Table 2, read-out: Ki GT3): 121 ± 16 nM |
| COc1ccc2nc(C(F)(F)F)c(O[C@@H]3C[C@H]4C(=O)N[C@]5(C(=O)NS(=O)(=O)C6(C)CC6)C[C@H]5/C=C\CCCCC[C@H](NC(=O)OC5(C(F)(F)F)CCC5)C(=O)N4C3)nc2c1 [NR02-59, 1-(Trifluoromethyl)cyclobutyl ((2R,6S,13aS,14aR,16aS,Z)-2-((7-methoxy-3-(trifluoromethyl)quinoxalin-2-yl)oxy)-14a-(((1-methylcyclopropyl)sulfonyl)carbamoyl)-5,16-dioxo-1,2,3,5,6,7,8,9,10,11,13a,14,14a,15,16,16a-hexadecahydrocyclopropa[e]pyrrolo[1,2-a][1,4]diazacyclopentadecin-6-yl)carbamate] | – | 12.2 ± 1.1 nM | 2 ± 0.2 nM | 133 ± 25 nM | – |
| COc1ccc2nc(C)c(O[C@@H]3C[C@H]4C(=O)N[C@]5(C(=O)NS(=O)(=O)C6(C)CC6)C[C@H]5/C=C\CCCCC[C@H](NC(=O)OC5(C(F)(F)F)CCCC5)C(=O)N4C3)nc2c1 [NR02-60, 1-(Trifluoromethyl)cyclopentyl ((2R,6S,13aS,14aR,16aS,Z)-2-((7-methoxy-3-methylquinoxalin-2-yl)oxy)-14a-(((1-methylcyclopropyl)sulfonyl)carbamoyl)-5,16-dioxo-1,2,3,5,6,7,8,9,10,11,13a,14,14a,15,16,16a-hexadecahydrocyclopropa[e]pyrrolo [1,2-a][1,4]diazacyclopentadecin-6-yl)carbamate] | – | 8.1 ± 1.5 nM | 1.3 ± 0.2 nM | 104 ± 7 nM | – |
| COc1ccc2nc(C(F)(F)F)c(O[C@@H]3C[C@H]4C(=O)N[C@]5(C(=O)NS(=O)(=O)C6(C)CC6)C[C@H]5/C=C\CCCCC[C@H](NC(=O)OC5(C)CCC5)C(=O)N4C3)nc2c1 [NR02-62, 1-Methylcyclobutyl ((2R,6S,13aS,14aR,16aS,Z)-2-((7-methoxy-3-(trifluoromethyl)quinoxalin-2-yl)oxy)-14a-(((1-methylcyclopropyl)sulfonyl)carbamoyl)-5,16-dioxo-1,2,3,5,6,7,8,9,10,11,13a,14,14a,15,16,16a-hexadecahydrocyclopropa[e]pyrrolo[1,2-a][1,4]diazacyclopentadecin-6-yl)carbamate] | – | 20.7 ± 0.7 nM | 4.86 ± 0.39 nM | 283 ± 21 nM | – |
| COc1ccc2nc(C)c(O[C@@H]3C[C@H]4C(=O)N[C@]5(C(=O)NS(=O)(=O)C6(C)CC6)C[C@H]5/C=C\CCCCC[C@H](NC(=O)OC5CCCCC5)C(=O)N4C3)nc2c1 [NR03-67, Cyclohexyl ((2R,6S,13aS,14aR,16aS,Z)-2-((7-methoxy-3-methylquinoxalin-2-yl)oxy)-14a-(((1-methylcyclopropyl)sulfonyl)carbamoyl)-5,16-dioxo-1,2,3,5,6,7,8,9,10,11,13a,14,14a,15,16,16a-hexadecahydrocyclopropa[e]pyrrolo[1,2-a][1,4]diazacyclopentadecin-6-yl)carbamate] | (14) fold | 12.7 ± 1.2 nM | 0.94 ± 0.25 nM | 145 ± 7 nM | fold increase in potency against D168A compared to the parent compound [2]: ~3 fold |
| COc1ccc2nc(C)c(O[C@@H]3C[C@H]4C(=O)N[C@]5(C(=O)NS(=O)(=O)C6(C)CC6)C[C@H]5/C=C\CCCCC[C@H](NC(=O)O[C@@H]5C[C@@H]6C[C@@H]6C5)C(=O)N4C3)nc2c1 [NR03-77, (1R,3R,5S)-Bicyclo[3.1.0]hexan-3-yl ((2R,6S,13aS,14aR,16aS,Z)-2-((7-methoxy-3-methylquinoxalin-2-yl)oxy)-14a-(((1-methylcyclopropyl)sulfonyl)carbamoyl)-5,16-dioxo-1,2,3,5,6,7,8,9,10,11,13a,14,14a,15,16,16a-hexadecahydrocyclopropa[e]pyrrolo[1,2-a][1,4]diazacyclopentadecin-6-yl)carbamate] | (4) fold | 2.3 ± 0.7 nM | 0.54 ± 0.2 nM | 38.6 ± 1.5 nM | fold more potent than grazoprevir towards D168A ([2]; compared to grazoprevir): 20 fold; fold increase in potency against D168A compared to the parent compound [2]: 26 fold; fold improvement in potency against WT compared to P4-2 ([3]; compared to P4-2): ~3 fold |
| COc1ccc2nc(C(F)(F)F)c(O[C@@H]3C[C@H]4C(=O)N[C@]5(C(=O)NS(=O)(=O)C6(C)CC6)C[C@H]5/C=C\CCCCC[C@H](NC(=O)OC5(C(F)(F)F)CCCC5)C(=O)N4C3)nc2c1 [NR04-01, 1-(Trifluoromethyl)cyclopentyl ((2R,6S,13aS,14aR,16aS,Z)-2-((7-methoxy-3-(trifluoromethyl)quinoxalin-2-yl)oxy)-14a-(((1-methylcyclopropyl)sulfonyl)carbamoyl)-5,16-dioxo-1,2,3,5,6,7,8,9,10,11,13a,14,14a,15,16,16a-hexadecahydrocyclopropa[e]pyrrolo[1,2-a][1,4]diazacyclopentadecin-6-yl)carbamate] | – | 20.4 ± 0.9 nM | 5.66 ± 0.5 nM | 414 ± 23 nM | – |
| tert-Butyl ((2R,6S,13aS,14aR,16aS, Z)-2-((7-methoxy-3-(trifluoromethyl) quinoxalin-2-yl) oxy)-14a-(((1-methylcyclopropyl) sulfonyl) carbamoyl)-5,16-dioxo-1,2,3,5,6,7,8,9,10,11,13a,14,14a,15,16,16a-hexadecahydrocyclopropa[e]pyrrolo[1,2-a] [1,4] diazacyclopentadecin-6-yl) carbamate | – | – | – | – | ring closure, isolated yield ([5]; 5.73 mM): 73% |
| tert-Butyl ((2R,6S,13aS,14aR,16aS, Z)-2-((7-methoxy-3-methylquinoxalin-2-yl) oxy)-14a-(((1-methylcyclopropyl) sulfonyl) carbamoyl)-5,16-dioxo-1,2,3,5,6,7,8,9,10,11,13a,14,14a,15,16,16a-hexadecahydrocyclopropa[e]pyrrolo[1,2-a] [1,4] diazacyclopentadecin-6-yl) carbamate | – | – | – | – | ring closure, isolated yield ([5]; 4.95 mM): 70% |
